In paper PMC10451668, “Natural Acetogenins, Chatenaytrienins-1, -2, -3 and -4, Mitochondrial Potential Uncouplers and Autophagy Inducers—Promising Anticancer Agents” (Antioxidants, 2023):

How the values were obtained:
Format in all cases: cell-based, human
[1] = tested on: Jurkat cells; assay: Oxidative stress and early apoptosis (MitoSOX Red and annexin V, MitoStress Kit); conditions: antimycin 100 µM, 4 h
From the text: Changes in the mitochondrial membrane potential (ΔΨ) in Jurkat cells induced by treatment with the synthesized compounds were detected using MitoSOX Red, a positively charged probe that accumulates rapidly in mitochondria and as such can be used to detect superoxide/ROS production within mitochondria using fluorometry, microscopy, or flow cytometry. Live cells induced a low level of MitoSOX Red fluorescence, while cells with scattered mitochondrial membrane potential caused much higher MitoSOX Red fluorescence. Annexin V is a dye commonly used to detect early signs of apoptosis. […] Thus, using two different dyes, MitoSOX Red and annexin V (CF488A), in the FlowCellect™ MitoStress Kit (FCCH100109), we analyzed the mitochondrial membrane potential dissipation and associated apoptosis in Jurkat cells in response to the synthesized chatenaytrienins.
Therefore, simultaneous detection of mitochondrial superoxide generation (detected by MitoSOX Red membrane-penetrating dye) and expression of phosphatidylserine on the cell surface of apoptotic cells (assessed by binding of annexin V) in the same cell sample provides an accurate evaluation of the ability of the test compound to initiate oxidative stress in cell culture and induce apoptosis.

[2] = tested on: Jurkat cell lysates; assay: Multiplex analysis of signaling, genotoxicity and early apoptosis proteins (MILLIPLEX MAP, Luminex)
Protocol: Multiplex analysis was performed according to a previously published method. MILLIPLEX®MAP technology is used to determine the total protein or phosphorylated protein levels of various biological analytes, such as kinases or signaling proteins, including CREB, ERK/MAP, p70 S6, p21, p38, PI3K/AKT/mTOR, JNK (A), p53, MDM2, Bcl-2/Bax, STAT3 and STAT5, Nf-kB, Caspase 3-8-9, JNK, ATM, Chk1, Chk2, and H2AX, in cell lysates using the Luminex® system ((MILLIPLEX Multi-Pathway Magnetic Bead 9-Plex—Cell Signaling Multiplex Assay kit, Merk, Germany). This MILLIPLEX®MAP technology provides an alternative to Western blotting and immunoprecipitation and has several important advantages, such as more accurate measurement of small amounts of protein and the elimination of analyte loss during sample preparation. The multiplex immunoassay (MILLIPLEX 48-680MAG; Merck Millipore, Germany) was performed in Millipore 96-well plates to detect changes in concentrations of phosphorylated and unphosphorylated proteins p53, MDM2, p21, p38, PI3K/AKT/mTOR, Bcl-2/Bax, STAT3 and STAT5, Nf-kB, Caspase 3 -8-9, CREB, ERK/MAP, p70 S6, JNK, ATM, Chk1, Chk2, and H2AX in Jurkat cell lysates.
The levels of phosphorylated and non-phosphorylated proteins were analyzed using MILLIPLEX® map technology to study the analytes in the same sample within a fairly short time. Various deviations in protein concentration due to external factors or detection errors that could affect the results of the experiment were thereby reduced to zero.
The expression of p53, MDM2, p21, p38, PI3K/AKT/mTOR, Bcl-2/Bax, STAT3 and STAT5, Nf-kB, Caspase 3-8-9, CREB, ERK/MAP, p70 S6, JNK, ATM, Chk1, Chk2, and H2AX proteins in lysate samples of Jurkat tumor cells were studied using Luminex technology with the MILLIPLEX® MAP 9-Plex Multi-Pathway 9-plex Magnetic Bead Kit. This bead-based assay involved color-coded fluorescent particles pre-coated with specific antibodies targeting 9 major kinases in signaling pathways.

[3] = tested on: Jurkat tumor cell line; assay: Assessment of cytochrome c loss (FlowCellect Cytochrome c Kit); conditions: compound at CC50, incubation 3 h, anti-cytochrome c-FITC
Protocol: Quantification of cytochrome c release from mitochondria in apoptotic cells was presented to detect the mitochondrial pathway of apoptosis in cells using flow cytometry with the FlowCellect™ Cytochrome c Kit (FCCH100110). For this, cells were treated with FITC-conjugated antibodies against cytochrome c and control anti-IgG1-FITC, together with the use of an optimized fixation procedure, permeabilization, and blocking buffer (Luminex®, USA). […] Jurkat cells were incubated for 4 h with the synthesized substances at a concentration corresponding to their 24-h CC50 in a culture plate and assessed using the NovoCyte Penteon Flow Cytometer System (Agilent, 5301 Stevens Creek Blvd., Santa Clara, CA, USA). The obtained data were processed using NovoExpress® software (ACEA).

[4] = tested on: Jurkat cells; assay: Detection of mitodamage: mitochondrial membrane potential and apoptosis (MitoSense Red, annexin V, 7-AAD); conditions: Jurkat, compound at CC50, 4 h
From the text: The use of reagents MitoSense Red, annexin V, and 7-AAD in the Millipore FlowCellect™ MitoDamage Kit allowed us to gain information on early, mid, and late apoptosis with one simple assay. […] After this time, the cells were dissociated using an accutase solution, stained, and analyzed using the NovoCyte Penteon Flow Cytometer System (Agilent, 5301 Stevens Creek Blvd., Santa Clara, CA, USA), according to the manufacturer’s protocols for the FlowCellect™ MitoDamage Kit and FlowCellect™ Oxidative Stress Characterization Kit (Merck).
Detection of mitochondrial potential dissipation using MitoSense Red, annexin V, and 7-AAD provided a simultaneous measurement of three important parameters of the cell state within the same cell sample: the state of the mitochondrial potential (Δψ), detected by the membrane-penetrating MitoSense Red dye; the expression of phosphatidylserine on the cell surface of apoptotic cells, assessed by the binding of annexin V to externalized phosphatidylserine; and the binding of 7-AAD to DNA in cells in the late stages of apoptosis. Multiparametric evaluation of these indicators of cell viability made it possible to determine the correlation and relationship between oxidation dissipation and phosphorylation with apoptosis.

CCCCCC[C@H]1C(=O)O[C@H](C)[C@H](NC(=O)c2cccc(NC=O)c2O)C(=O)O[C@@H](C)[C@@H]1OC(=O)CC(C)C [antimycin, reference compound]
intact (live) cells in the sample [1]: 12.65%

CCCCCCCCCCCC/C=C\CC/C=C\CCCCCCCCCCCCC1=C[C@H](C)OC1=O [muricadienin, reference compound]
expression of caspase-8 ([2]; 6 h and 12 h): did not significantly affect | concentration of p53 ([2]; after 12 h of incubation, versus control): significantly increased | levels of all types of kinase proteins (CREB, JNK, NFkB, p38, ERK1/2, Akt, p70S6K, STAT3, STAT5) ([2]; compound at CC50, 4 h, MFI versus intact cells): most pronouncedly reduced | cleaved caspase-9 ([2]; especially after 12 h, level exceeded control): promoted the accumulation | level of BAD protein ([2]; first 6 h, within 12 h began to increase again, not reaching control): decreased

CN[C@@H]1C[C@H]2O[C@@](C)([C@@H]1OC)n1c3ccccc3c3c4c(c5c6ccccc6n2c5c31)C(=O)NC4 [staurosporine, reference compound]
cells with cytochrome c released into the cytoplasm (Negative gate) [3]: 80.23% | cells in late apoptosis (stained with 7-AAD) [4]: 2.48%
